According to ChEMBL document CHEMBL1134920, “1,3,4-Trisubstituted pyrrolidine CCR5 receptor antagonists. Part 4: synthesis of N-1 acidic functionality affording analogues with enhanced antiviral activity against HIV” (Bioorg Med Chem Lett, 2002):
Values belong to the compound of their own block, whether it stands above or below them.

What was measured:
[1] = molecular target: C-C chemokine receptor type 5 (Homo sapiens, UniProt P51681); experiment: In vitro binding affinity at CCR5 receptor in the presence of [125I]-MIP-1 alpha.
C-C chemokine receptor type 5, sequence (P51681 whole entry): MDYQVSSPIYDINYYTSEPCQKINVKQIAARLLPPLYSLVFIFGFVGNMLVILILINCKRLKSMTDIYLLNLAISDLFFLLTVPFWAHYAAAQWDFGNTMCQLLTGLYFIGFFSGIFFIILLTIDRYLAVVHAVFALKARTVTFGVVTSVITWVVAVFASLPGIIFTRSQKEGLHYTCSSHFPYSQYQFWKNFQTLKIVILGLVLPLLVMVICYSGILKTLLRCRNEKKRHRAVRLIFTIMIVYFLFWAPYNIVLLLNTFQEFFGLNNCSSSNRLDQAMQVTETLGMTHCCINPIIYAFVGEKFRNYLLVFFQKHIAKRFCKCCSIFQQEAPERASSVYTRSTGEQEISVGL

[2] = tested on: Human immunodeficiency virus 1; experiment: In vitro inhibition of HIV-1 BAL strain infection of HeLa cell line.; assay type: functional; details: Human immunodeficiency virus 1, HeLa
[3] = Half-life in rhesus monkey; assay type: ADME; details: cercopithecidae, in vivo
[4] = Bioavailability in dog; assay type: ADME, organism-based, Canis lupus familiaris; details: in vivo
[5] = Plasma clearance in rat; assay type: ADME, organism-based; details: read-out: Clp
[6] = Bioavailability in rat; assay type: ADME, organism-based; details: in vivo
[7] = Bioavailability in Rhesus monkey; assay type: ADME, organism-based, Macaca mulatta; details: in vivo
[8] = Volume of distribution in steady state was determined in rhesus monkey; assay type: ADME, organism-based; details: cercopithecidae, in vivo; read-out: Vdss
[9] = Half-life in dog; assay type: ADME, organism-based, Canis lupus familiaris; details: in vivo
[10] = Volume of distribution in steady state was determined in rat; assay type: ADME, organism-based; details: in vivo, read-out: Vdss
[11] = Volume of distribution in steady state was determined in dog; assay type: ADME, organism-based, Canis lupus familiaris; details: in vivo, read-out: Vdss
[12] = Plasma clearance in dog; assay type: ADME, organism-based, Canis lupus familiaris; details: read-out: Clp
[13] = Half-life in rat; assay type: ADME, organism-based; details: in vivo
[14] = molecular target: Voltage-gated L-type calcium channel (Homo sapiens, UniProt Q13936+Q13698+Q01668+O60840); experiment: Inhibition of L-type Ca+2 channels; assay type: protein assay
[15] = Inhibitory concentration was determined against peripheral blood mononuclear cells (PBMC); assay type: functional
[16] = Plasma clearance in rhesus monkey; assay type: ADME, organism-based; details: cercopithecidae, read-out: Clp
Macaca mulatta = organism: Macaca mulatta; experiment: Plasma clearance in rhesus monkey; details: read-out: Clp

Compound: O=C(O)[C@H](C1CCCCC1)N1C[C@H](CN2CCC(O)(CCCc3ccccc3)CC2)[C@@H](c2ccccc2)C1
IC50 [1]: 5 nM
IC90 [2]: > 300 nM

IC50 [1]: 4 nM
Compound: COC(=O)[C@H](C1CCCCC1)N1C[C@H](CN2CCC(O)(CCCc3ccccc3)CC2)[C@@H](c2ccccc2)C1

Compound: O=C(OCc1ccccc1)[C@@H](C1CCCCC1)N1C[C@H](CN2CCC(O)(CCCc3ccccc3)CC2)[C@@H](c2ccccc2)C1
IC50 [1]: 3.6 nM
IC90 [2]: > 300 nM

Compound: O=C(O)[C@@H](c1ccccc1)N1C[C@H](CN2CCC(O)(CCCc3ccccc3)CC2)[C@@H](c2ccccc2)C1
IC50 [1]: 0.8 nM
IC90 [2]: 33 nM

Compound: O=C(O)CN1C[C@H](CN2CCC(O)(CCCc3ccccc3)CC2)[C@@H](c2ccccc2)C1
IC50 [1]: 6 nM
IC90 [2]: 3000 nM

Compound: C[C@H](C(=O)O)N1C[C@H](CN2CCC(O)(CCCc3ccccc3)CC2)[C@@H](c2ccccc2)C1
IC50 [1]: 3 nM
IC90 [2]: 333 nM

Compound: O=C(O)[C@@H](C1CCCCC1)N1C[C@H](CN2CCC(CCCc3ccccc3)CC2)[C@@H](c2ccccc2)C1
half-life [3]: 6.3 h
bioavailability [4]: 43%
clearance [5]: 17.6 mL/min/kg
bioavailability [6]: 26%
bioavailability [7]: 10%
Vd [8]: 6.2 L/kg
half-life [9]: 9.2 h
Vd [10]: 3.3 L/kg
Vd [11]: 3.1 L/kg
clearance [12]: 10.9 mL/min/kg
half-life [13]: 2.1 h
IC50 [1]: 0.1 nM
IC90 [2]: 11 nM
IC50 [14]: 5300 nM
IC95 [15]: 77 nM
clearance [16]: 17.1 mL/min/kg

Compound: OC[C@@H](C1CCCCC1)N1C[C@H](CN2CCC(O)(CCCc3ccccc3)CC2)[C@@H](c2ccccc2)C1
IC50 [1]: 1 nM
IC90 [2]: 300 nM

Compound: O=C(O)[C@@H](C1CCCCC1)N1C[C@H](CN2CCC(c3ccc(F)cc3)CC2)[C@@H](c2ccccc2)C1
IC50 [1]: 4 nM
IC90 [2]: 0.4 nM

IC50 [1]: 1 nM
Compound: OC[C@H](C1CCCCC1)N1C[C@H](CN2CCC(O)(CCCc3ccccc3)CC2)[C@@H](c2ccccc2)C1

Compound: O=C(O)[C@@H](CC1CCC1)N1C[C@H](CN2CCC(CCCc3ccccc3)CC2)[C@@H](c2ccccc2)C1
clearance [5]: 26.5 mL/min/kg
bioavailability [6]: 29%
Vd [10]: 5.9 L/kg
half-life [13]: 3 h
IC50 [1]: 0.1 nM
IC90 [2]: 1.2 nM
IC50 [14]: 2700 nM
IC95 [15]: < 8 nM

Compound: O=C(O)[C@@H](CC1CC1)N1C[C@H](CN2CCC(CCCc3ccccc3)CC2)[C@@H](c2ccccc2)C1
IC50 [1]: 0.1 nM
IC90 [2]: 11 nM

Compound: CC(C)[C@H](C(=O)O)N1C[C@H](CN2CCC(O)(CCCc3ccccc3)CC2)[C@@H](c2ccccc2)C1
IC50 [1]: 2 nM
IC90 [2]: 333 nM

Compound: CC(C)[C@H](C(=O)O)N1C[C@H](CN2CCC(CCCc3ccccc3)CC2)[C@@H](c2ccccc2)C1
IC50 [1]: 0.7 nM
IC90 [2]: 111 nM

Compound: O=C(O)[C@@H](C1CC1)N1C[C@H](CN2CCC(CCCc3ccccc3)CC2)[C@@H](c2ccccc2)C1
IC50 [1]: 3 nM
IC90 [2]: 300 nM

Compound: OC1(CCCc2ccc(-c3nnn[nH]3)cc2)CCN(C[C@H]2CN(CC3CCCCC3)C[C@@H]2c2ccccc2)CC1
bioavailability [6]: 0%
half-life [13]: 0.3 h
IC90 [2]: 4 nM
IC50 [14]: > 10000 nM

Compound: O=C(O)[C@@H](C1CCC1)N1C[C@H](CN2CCC(CCCc3ccccc3)CC2)[C@@H](c2ccccc2)C1
IC50 [1]: 0.1 nM
IC90 [2]: 11 nM

Compound: O=C(OCc1ccccc1)[C@H](C1CCCCC1)N1C[C@H](CN2CCC(O)(CCCc3ccccc3)CC2)[C@@H](c2ccccc2)C1
IC50 [1]: 24 nM
IC90 [2]: > 300 nM

Compound: O=C(O)[C@@H](C1CCCCC1)N1C[C@H](CN2CCC(O)(CCCc3ccccc3)CC2)[C@@H](c2ccccc2)C1
clearance [5]: 128 mL/min/kg
bioavailability [6]: 0%
Vd [10]: 15 L/kg
half-life [13]: 1.8 h
IC50 [1]: 0.5 nM
IC90 [2]: 11 nM
IC95 [15]: 187 nM

Compound: CC(C)[C@H](C(=O)O)N1C[C@H](CN2CCC(c3ccc(F)cc3)CC2)[C@@H](c2ccccc2)C1
half-life [3]: 7.8 h
bioavailability [4]: 34%
clearance [5]: 68.3 mL/min/kg
bioavailability [6]: 50%
bioavailability [7]: 84%
Vd [8]: 4.2 L/kg
half-life [9]: 6.4 h
Vd [10]: 8.4 L/kg
Vd [11]: 8.6 L/kg
clearance [12]: 13.1 mL/min/kg
half-life [13]: 1.9 h
IC50 [1]: 36 nM
IC90 [2]: > 100 nM
IC50 [14]: > 10000 nM
IC95 [15]: > 3000 nM
clearance (Macaca mulatta): 14.6 mL/min/kg

IC50 [1]: 1 nM
Compound: COC(=O)[C@@H](C1CCCCC1)N1C[C@H](CN2CCC(O)(CCCc3ccccc3)CC2)[C@@H](c2ccccc2)C1

Compound: O=C(O)[C@@H](C1CCCC1)N1C[C@H](CN2CCC(CCCc3ccccc3)CC2)[C@@H](c2ccccc2)C1
IC50 [1]: 0.2 nM
IC90 [2]: 11 nM
